Measurements as given in patent US8008298B2, “Pyrrolopyrazine kinase inhibitors” (Roche Palo Alto, priority 2008, dated 2011).

Structure (SMILES) | melting point [°C]
CC(=O)N1CCN(c2cccc(-c3cnc4[nH]cc(C(=O)C(C)(C)C)c4n3)c2)CC1 [Example I-100, 1-{2-[3-(4-Acetyl-piperazin-1-yl)-phenyl]-5H-pyrrolo[2,3-b]pyrazin-7-yl}-2,2-dimethyl-propan-1-one] | 238 to 239
CC(C)(C)C(=O)c1c[nH]c2ncc(-c3cccc(-n4cccn4)c3)nc12 [Example I-115, 2,2-Dimethyl-1-[2-(3-pyrazol-1-yl-phenyl)-5H-pyrrolo[2,3-b]pyrazin-7-yl]-propan-1-one] | 219.3 to 221.1
CC(C)(C)C(=O)c1c[nH]c2ncc(-c3cccc(-c4ccn[nH]4)c3)nc12 [Example I-126, 2,2-Dimethyl-1-{2-[3-(2H-pyrazol-3-yl)-phenyl]-5H-pyrrolo[2,3-b]pyrazin-7-yl}-propan-1-one] | 277 to 278
CNC(=O)c1cccc(-c2cnc3[nH]cc(C(=O)C(C)(C)C)c3n2)c1 [Example I-129, 3-[7-(2,2-Dimethyl-propionyl)-5H-pyrrolo[2,3-b]pyrazin-2-yl]-N-methyl-benzamide] | 257 to 258
COCc1cccc(-c2cnc3[nH]cc(C(=O)C(C)(C)C)c3n2)c1 [Example I-130, 1-[2-(3-Methoxymethyl-phenyl)-5H-pyrrolo[2,3-b]pyrazin-7-yl]-2,2-dimethyl-propan-1-one] | 143 to 144
COCc1ccc(-c2cnc3[nH]cc(C(=O)C(C)(C)C)c3n2)cc1 [Example I-132, 1-[2-(4-Methoxymethyl-phenyl)-5H-pyrrolo[2,3-b]pyrazin-7-yl]-2,2-dimethyl-propan-1-one] | 191 to 192
COc1ccccc1-c1cnc2[nH]cc(C(=O)C(C)(C)C)c2n1 [Example I-133, 1-[2-(2-Methoxy-phenyl)-5H-pyrrolo[2,3-b]pyrazin-7-yl]-2,2-dimethyl-propan-1-one] | 199.5 to 200.7
COc1cccc(-c2cnc3[nH]cc(C(=O)C(C)(C)C)c3n2)c1 [Example I-134, 1-[2-(3-Methoxy-phenyl)-5H-pyrrolo[2,3-b]pyrazin-7-yl]-2,2-dimethyl-propan-1-one] | 197.4 to 198.8
CC(C)(C)C(=O)c1c[nH]c2ncc(-c3cccc(C(=O)NC4CCCC4)c3)nc12 [Example I-136, N-Cyclopentyl-3-[7-(2,2-dimethyl-propionyl)-5H-pyrrolo[2,3-b]pyrazin-2-yl]-benzamide] | 227 to 228.5
CC(C)(C)C(=O)c1c[nH]c2ncc(-c3cccc(O)c3)nc12 [Example I-141, 1-[2-(3-Hydroxy-phenyl)-5H-pyrrolo[2,3-b]pyrazin-7-yl]-2,2-dimethyl-propan-1-one] | 267 to 268
COCOc1cc(-c2cnc3[nH]cc(C(=O)C(C)(C)C)c3n2)cc(N2CCCC2)c1 [Example I-151, 1-[2-(3-Methoxymethoxy-5-pyrrolidin-1-yl-phenyl)-5H-pyrrolo[2,3-b]pyrazin-7-yl]-2,2-dimethyl-propan-1-one] | 229 to 230
CC(C)Oc1cc(-c2cnc3[nH]cc(C(=O)C(C)(C)C)c3n2)cc(N2CCCC2)c1 [Example I-152, 1-[2-(3-Isopropoxy-5-pyrrolidin-1-yl-phenyl)-5H-pyrrolo[2,3-b]pyrazin-7-yl]-2,2-dimethyl-propan-1-one] | 233 to 235
COc1cc(-c2cnc3[nH]cc(C(=O)C4(C)CCCCC4)c3n2)cc(N2CCSCC2)c1 [Example I-155, [2-(3-Methoxy-5-thiomorpholin-4-yl-phenyl)-5H-pyrrolo[2,3-b]pyrazin-7-yl]-(1-methyl-cyclohexyl)-methanone] | 212 to 214
CC(C)(C)C(=O)c1c[nH]c2ncc(-c3cccc(N4CCC5(CCSC5)C4)c3)nc12 (stereo not drawn) [Example I-168, 2,2-Dimethyl-1-{2-[3-(2-thia-7-aza-spiro[4.4]non-7-yl)-phenyl]-5H-pyrrolo[2,3-b]pyrazin-7-yl}-propan-1-one] | 239 to 241
COc1ccc(COc2cccc(-c3cnc4[nH]cc(C(=O)NC(C)C)c4n3)c2)cc1 [Example I-229, 2-[3-(4-Methoxy-benzyloxy)-phenyl]-5H-pyrrolo[2,3-b]pyrazine-7-carboxylic acid isopropylamide] | 215 to 216
COCC1CCCN1c1cccc(-c2cnc3[nH]cc(C(=O)NC(C)C)c3n2)c1 (stereo not drawn) [Example I-230, 2-[3-(2-Methoxymethyl-pyrrolidin-1-yl)-phenyl]-5H-pyrrolo[2,3-b]pyrazine-7-carboxylic acid isopropylamide] | 187 to 190
Cc1nnc(-c2cccc(-c3cnc4[nH]cc(C(=O)C(C)(C)C)c4n3)c2)o1 [Example I-325, 2,2-Dimethyl-1-{2-[3-(5-methyl-[1,3,4]oxadiazol-2-yl)-phenyl]-5H-pyrrolo[2,3-b]pyrazin-7-yl}-propan-1-one] | 260.9 to 264.4
Cc1cc(-c2cnc3[nH]cc(C(=O)C(C)(C)C)c3n2)cc(C(C)(C)C)c1 [Example I-334, 1-[2-(3-tert-Butyl-5-methyl-phenyl)-5H-pyrrolo[2,3-b]pyrazin-7-yl]-2,2-dimethyl-propan-1-one] | 234.9 to 236.1

Structure (SMILES) | melting point [°C]
CC(C)(C)C(=O)c1c[nH]c2ncc(-c3cccc(-c4ccccc4)c3)nc12 [Example I-335, 1-(2-Biphenyl-3-yl-5H-pyrrolo[2,3-b]pyrazin-7-yl)-2,2-dimethyl-propan-1-one] | 219.9 to 221.1
CC(C)(C)OCc1cccc(-c2cnc3[nH]cc(C(=O)C(C)(C)C)c3n2)c1 [Example I-336, 1-[2-(3-tert-Butoxymethyl-phenyl)-5H-pyrrolo[2,3-b]pyrazin-7-yl]-2,2-dimethyl-propan-1-one] | 202 to 203
CC(C)c1cccc(-c2cnc3[nH]cc(C(=O)C(C)(C)C)c3n2)c1 [Example I-337, 1-[2-(3-Isopropyl-phenyl)-5H-pyrrolo[2,3-b]pyrazin-7-yl]-2,2-dimethyl-propan-1-one] | 197 to 198
CC(C)(C)C(=O)c1c[nH]c2ncc(-c3ccc(F)c(Cl)c3)nc12 [Example I-341, 1-[2-(3-Chloro-4-fluoro-phenyl)-5H-pyrrolo[2,3-b]pyrazin-7-yl]-2,2-dimethyl-propan-1-one] | 233 to 234
CC(C)(C)C(=O)c1c[nH]c2ncc(-c3cccc(-c4cnc[nH]4)c3)nc12 [Example I-346, 1-{2-[3-(3H-Imidazol-4-yl)-phenyl]-5H-pyrrolo[2,3-b]pyrazin-7-yl}-2,2-dimethyl-propan-1-one] | 287 to 288
CC(C)(C)C(=O)c1c[nH]c2ncc(-c3cccc(C4=CCCCC4)c3)nc12 [Example I-352, 1-[2-(3-Cyclohex-1-enyl-phenyl)-5H-pyrrolo[2,3-b]pyrazin-7-yl]-2,2-dimethyl-propan-1-one] | 188 to 190
CC(C)(C)C(=O)c1c[nH]c2ncc(-c3ccc(-c4ccccc4)cc3)nc12 [Example I-355, 1-(2-Biphenyl-4-yl-5H-pyrrolo[2,3-b]pyrazin-7-yl)-2,2-dimethyl-propan-1-one] | 275 to 277
Cc1nnc(-c2ccc(-c3cnc4[nH]cc(C(=O)C(C)(C)C)c4n3)cc2)o1 [Example I-357, 2,2-Dimethyl-1-{2-[4-(5-methyl-[1,3,4]oxadiazol-2-yl)-phenyl]-5H-pyrrolo[2,3-b]pyrazin-7-yl}-propan-1-one] | > 300
CC(C)(C)C(=O)c1c[nH]c2ncc(-c3ccc(OCCN4CCCCC4)cc3)nc12 [Example I-363, 2,2-Dimethyl-1-{2-[4-(2-piperidin-1-yl-ethoxy)-phenyl]-5H-pyrrolo[2,3-b]pyrazin-7-yl}-propan-1-one] | 207 to 208
CCNC(=O)c1cccc(-c2cnc3[nH]cc(C(=O)C(C)(C)C)c3n2)c1 [Example I-365, 3-[7-(2,2-Dimethyl-propionyl)-5H-pyrrolo[2,3-b]pyrazin-2-yl]-N-ethyl-benzamide] | 232 to 233
CC1(C(=O)c2c[nH]c3ncc(-c4ccc(OCCN5CCCCC5)cc4)nc23)CCCCC1 [Example I-368, (1-Methyl-cyclohexyl)-{2-[4-(2-piperidin-1-yl-ethoxy)-phenyl]-5H-pyrrolo[2,3-b]pyrazin-7-yl}-methanone] | 180 to 182
CC(C)(C)C(=O)c1c[nH]c2ncc(-c3cccc(-c4cn[nH]c4)c3)nc12 [Example I-369, 2,2-Dimethyl-1-{2-[3-(1H-pyrazol-4-yl)-phenyl]-5H-pyrrolo[2,3-b]pyrazin-7-yl}-propan-1-one] | > 300
COc1cc(-c2cnc3[nH]cc(C(=O)N4CCC(C)(C)C4)c3n2)cc(OC)c1OC [Example I-395, (3,3-Dimethyl-pyrrolidin-1-yl)-[2-(3,4,5-trimethoxy-phenyl)-5H-pyrrolo[2,3-b]pyrazin-7-yl]-methanone] | 228 to 230
CC(C)(C)C(=O)c1c[nH]c2ncc(-c3cccc(N4CCC(O)C4)c3)nc12 (stereo not drawn) [Example I-402, 1-{2-[3-(3-Hydroxy-pyrrolidin-1-yl)-phenyl]-5H-pyrrolo[2,3-b]pyrazin-7-yl}-2,2-dimethyl-propan-1-one] | 245 to 248
CC(C)(C)C(=O)c1c[nH]c2ncc(-c3cccc(NCCS(C)(=O)=O)c3)nc12 [Example I-407, 1-{2-[3-(2-Methanesulfonyl-ethylamino)-phenyl]-5H-pyrrolo[2,3-b]pyrazin-7-yl}-2,2-dimethyl-propan-1-one] | 205 to 206
CC(=O)Nc1ccc(S(=O)(=O)Nc2cccc(-c3cnc4[nH]cc(C(=O)C(C)(C)C)c4n3)c2)cc1 [Example I-412, N-(4-{3-[7-(2,2-Dimethyl-propionyl)-5H-pyrrolo[2,3-b]pyrazin-2-yl]-phenylsulfamoyl}-phenyl)-acetamide] | 226 to 228
CC(=O)Nc1ccc(S(=O)(=O)Nc2cc(-c3cnc4[nH]cc(C(=O)C(C)(C)C)c4n3)ccc2C)cc1 [Example I-415, N-(4-{5-[7-(2,2-Dimethyl-propionyl)-5H-pyrrolo[2,3-b]pyrazin-2-yl]-2-methyl-phenylsulfamoyl}-phenyl)-acetamide] | 274 to 276
Cc1ccc(-c2cnc3[nH]cc(C(=O)C(C)(C)C)c3n2)cc1NS(=O)(=O)c1ccc(N)cc1 [Example I-416, 4-Amino-N-{5-[7-(2,2-dimethyl-propionyl)-5H-pyrrolo[2,3-b]pyrazin-2-yl]-2-methyl-phenyl}-benzenesulfonamide] | 264 to 266
